Values quoted from earlier work as cited in patent US20230398128A1, “PREFERRED ORAL TESTOSTERONE UNDECANOATE THERAPY TO ACHIEVE TESTOSTERONE REPLACEMENT TREATMENT” (Marius Pharmaceuticals LLC, priority 2021, published 2023).

Details: for increase in ambulatory SBP: previous testosterone studies

Row | Compound | increase in ambulatory SBP | increase in ambulatory systolic BP (previously reported study, subjects receiving antihypertensive medication)
1 | CCCCCCC(=O)O[C@H]1CC[C@H]2[C@@H]3CCC4=CC(=O)CC[C@]4(C)[C@H]3CC[C@]12C [testosterone enanthate] | 3.7 mmHg | 
2 | CCCCCCCCCCC(=O)O[C@H]1CC[C@H]2[C@@H]3CCC4=CC(=O)CC[C@]4(C)[C@H]3CC[C@]12C [testosterone undecanoate (oral), testosterone undecanoate] | 4.9 mmHg | 5.5 mmHg
